Test results as given in PMC8500670, “A selective WDR5 degrader inhibits acute myeloid leukemia in patient-derived mouse models” (Science translational medicine, 2021).

Assays:
Assay in all cases: biochemical
5-HT2B = target: T1, 5-HT2B (Homo sapiens, UniProt P41595); set-up: NIMH-PDSP radioligand binding assays, percent inhibition of radioligand binding, quadruplicate
T1 construct: gene HTR2B

D4 = target: T2, D4 (Homo sapiens, UniProt P21917); set-up: NIMH-PDSP radioligand binding assays, percent inhibition of radioligand binding, quadruplicate
T2 construct: gene DRD4

5-HT1B = target: T3, 5-HT1B (Homo sapiens, UniProt P28222); set-up: NIMH-PDSP radioligand binding assays, percent inhibition of radioligand binding, quadruplicate
T3 construct: gene HTR1B

NET = target: T4, NET (Homo sapiens, UniProt P23975); set-up: NIMH-PDSP radioligand binding assays, percent inhibition of radioligand binding, quadruplicate
T4 construct: gene SLC6A2

5-HT1E = target: T5, 5-HT1E (Homo sapiens, UniProt P28566); set-up: NIMH-PDSP radioligand binding assays, percent inhibition of radioligand binding, quadruplicate
T5 construct: gene HTR1E

M5 = target: T6, M5 (Homo sapiens, UniProt P08912); set-up: NIMH-PDSP radioligand binding assays, percent inhibition of radioligand binding, quadruplicate
T6 construct: gene CHRM5

5-HT2C = target: T7, 5-HT2C (Homo sapiens, UniProt P28335); set-up: NIMH-PDSP radioligand binding assays, percent inhibition of radioligand binding, quadruplicate
T7 construct: gene HTR2C

Beta2 = target: T8, Beta2 (Homo sapiens, UniProt P07550); set-up: NIMH-PDSP radioligand binding assays, percent inhibition of radioligand binding, quadruplicate
T8 construct: gene ADRB2

Alpha2C = target: T9, Alpha2C (Homo sapiens, UniProt P18825); set-up: NIMH-PDSP radioligand binding assays, percent inhibition of radioligand binding, quadruplicate
T9 construct: gene ADRA2C

SERT = target: T10, SERT (Homo sapiens, UniProt P31645); set-up: NIMH-PDSP radioligand binding assays, percent inhibition of radioligand binding, quadruplicate
T10 construct: gene SLC6A4

Lck(h) = Lck(h) (Homo sapiens, UniProt P06239); set-up: kinase selectivity panel, activity as per cent of control, single concentration in duplicate; conditions: read-out: % of control remaining
Method: (§1) We next assessed selectivity of MS67 against 22 protein methyltransferases (table S2) and a broad panel of common drug targets including 45 kinases (table S3) and 44 G protein–coupled receptors (GPCR), ion channels, and transporters (table S4). […] We subsequently determined that MS67 had moderate binding affinity (Ki = 1.0 ± 0.8 μM) to Sigma 2 receptor (fig. S10).

Met(h) = Met(h) (Homo sapiens, UniProt P08581); set-up: kinase selectivity panel, activity as per cent of control, single concentration in duplicate; conditions: read-out: % of control remaining
Method: as §1

FGFR2(h) = FGFR2(h) (Homo sapiens, UniProt P21802); set-up: kinase selectivity panel, activity as per cent of control, single concentration in duplicate; conditions: read-out: % of control remaining
Method: as §1

IR(h) = target: T11, IR(h) (Homo sapiens, UniProt P06213); set-up: kinase selectivity panel, activity as per cent of control, single concentration in duplicate; conditions: read-out: % of control remaining
T11 construct: gene INSR
Method: as §1

JAK3(h) = JAK3(h) (Homo sapiens, UniProt P52333); set-up: kinase selectivity panel, activity as per cent of control, single concentration in duplicate; conditions: read-out: % of control remaining
Method: as §1

Aurora-A(h) = target: T12, Aurora-A(h) (Homo sapiens, UniProt O14965); set-up: kinase selectivity panel, activity as per cent of control, single concentration in duplicate; conditions: read-out: % of control remaining
T12 construct: gene AURKA
Method: as §1

CHK2(h) = target: T13, CHK2(h) (Homo sapiens, UniProt O96017); set-up: kinase selectivity panel, activity as per cent of control, single concentration in duplicate; conditions: read-out: % of control remaining
T13 construct: gene CHEK2
Method: as §1

FGFR3(h) = FGFR3(h) (Homo sapiens, UniProt P22607); set-up: kinase selectivity panel, activity as per cent of control, single concentration in duplicate; conditions: read-out: % of control remaining
Method: as §1

JNK1α1(h) = target: T14, JNK1α1(h) (Homo sapiens, UniProt P45983); set-up: kinase selectivity panel, activity as per cent of control, single concentration in duplicate; conditions: read-out: % of control remaining
T14 construct: gene MAPK8; isoform alpha1
Method: as §1

EphA3(h) = EphA3(h) (Homo sapiens, UniProt P29320); set-up: kinase selectivity panel, activity as per cent of control, single concentration in duplicate; conditions: read-out: % of control remaining
Method: as §1

PKA(h) = target: T15, PKA(h) (Homo sapiens, UniProt P17612); set-up: kinase selectivity panel, activity as per cent of control, single concentration in duplicate; conditions: read-out: % of control remaining
T15 construct: gene PRKACA
Method: as §1

Pim-2(h) = target: T16, Pim-2(h) (Homo sapiens, UniProt Q9P1W9); set-up: kinase selectivity panel, activity as per cent of control, single concentration in duplicate; conditions: read-out: % of control remaining
T16 construct: gene PIM2
Method: as §1

IKKα(h) = target: T17, IKKα(h) (Homo sapiens, UniProt O15111); set-up: kinase selectivity panel, activity as per cent of control, single concentration in duplicate; conditions: read-out: % of control remaining
T17 construct: gene CHUK
Method: as §1

MAPKAP-K2(h) = target: T18, MAPKAP-K2(h) (Homo sapiens, UniProt P49137); set-up: kinase selectivity panel, activity as per cent of control, single concentration in duplicate; conditions: read-out: % of control remaining
T18 construct: gene MAPKAPK2
Method: as §1

GSK3β(h) = target: T19, GSK3β(h) (Homo sapiens, UniProt P49841); set-up: kinase selectivity panel, activity as per cent of control, single concentration in duplicate; conditions: read-out: % of control remaining
T19 construct: gene GSK3B
Method: as §1

EphA3(h), sequence (P29320 whole entry): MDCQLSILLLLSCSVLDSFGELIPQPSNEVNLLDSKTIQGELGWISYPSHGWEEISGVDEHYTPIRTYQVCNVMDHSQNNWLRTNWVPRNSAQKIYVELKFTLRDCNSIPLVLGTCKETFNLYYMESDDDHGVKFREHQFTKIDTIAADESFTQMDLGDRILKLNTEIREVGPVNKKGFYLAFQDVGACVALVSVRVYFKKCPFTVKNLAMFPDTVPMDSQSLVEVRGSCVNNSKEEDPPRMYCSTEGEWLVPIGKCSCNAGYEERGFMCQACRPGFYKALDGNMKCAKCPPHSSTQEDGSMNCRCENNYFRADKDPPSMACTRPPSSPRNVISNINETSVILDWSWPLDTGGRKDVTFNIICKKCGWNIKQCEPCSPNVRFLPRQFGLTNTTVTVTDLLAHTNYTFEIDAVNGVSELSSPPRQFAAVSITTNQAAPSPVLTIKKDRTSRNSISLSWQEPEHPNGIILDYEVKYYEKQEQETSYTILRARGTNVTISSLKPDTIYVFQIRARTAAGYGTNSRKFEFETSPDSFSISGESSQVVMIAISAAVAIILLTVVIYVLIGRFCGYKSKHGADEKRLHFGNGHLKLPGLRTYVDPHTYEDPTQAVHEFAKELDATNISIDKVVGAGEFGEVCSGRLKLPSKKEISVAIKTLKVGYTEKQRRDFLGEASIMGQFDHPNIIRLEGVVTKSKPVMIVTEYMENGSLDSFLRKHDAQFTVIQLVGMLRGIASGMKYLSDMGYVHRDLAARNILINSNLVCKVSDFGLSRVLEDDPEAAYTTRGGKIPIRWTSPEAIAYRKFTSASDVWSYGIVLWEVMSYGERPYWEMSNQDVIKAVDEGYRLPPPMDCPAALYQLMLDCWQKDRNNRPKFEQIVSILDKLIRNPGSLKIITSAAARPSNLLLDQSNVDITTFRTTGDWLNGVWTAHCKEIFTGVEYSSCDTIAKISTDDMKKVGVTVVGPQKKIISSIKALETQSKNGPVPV
T1 sequence (P41595 whole entry): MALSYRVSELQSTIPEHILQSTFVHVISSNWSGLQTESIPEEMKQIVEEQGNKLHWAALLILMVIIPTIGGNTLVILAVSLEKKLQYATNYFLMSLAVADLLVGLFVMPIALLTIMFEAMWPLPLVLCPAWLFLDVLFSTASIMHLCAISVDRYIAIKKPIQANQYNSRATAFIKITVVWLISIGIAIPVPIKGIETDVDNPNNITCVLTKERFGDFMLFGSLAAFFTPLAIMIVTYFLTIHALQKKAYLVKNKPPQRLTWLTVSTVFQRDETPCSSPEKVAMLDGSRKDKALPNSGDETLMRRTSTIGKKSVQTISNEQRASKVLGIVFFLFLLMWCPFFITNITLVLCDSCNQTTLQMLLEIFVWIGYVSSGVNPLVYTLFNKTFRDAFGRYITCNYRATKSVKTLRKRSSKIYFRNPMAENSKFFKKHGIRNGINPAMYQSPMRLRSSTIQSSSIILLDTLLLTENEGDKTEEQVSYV
T4 sequence (P23975 whole entry): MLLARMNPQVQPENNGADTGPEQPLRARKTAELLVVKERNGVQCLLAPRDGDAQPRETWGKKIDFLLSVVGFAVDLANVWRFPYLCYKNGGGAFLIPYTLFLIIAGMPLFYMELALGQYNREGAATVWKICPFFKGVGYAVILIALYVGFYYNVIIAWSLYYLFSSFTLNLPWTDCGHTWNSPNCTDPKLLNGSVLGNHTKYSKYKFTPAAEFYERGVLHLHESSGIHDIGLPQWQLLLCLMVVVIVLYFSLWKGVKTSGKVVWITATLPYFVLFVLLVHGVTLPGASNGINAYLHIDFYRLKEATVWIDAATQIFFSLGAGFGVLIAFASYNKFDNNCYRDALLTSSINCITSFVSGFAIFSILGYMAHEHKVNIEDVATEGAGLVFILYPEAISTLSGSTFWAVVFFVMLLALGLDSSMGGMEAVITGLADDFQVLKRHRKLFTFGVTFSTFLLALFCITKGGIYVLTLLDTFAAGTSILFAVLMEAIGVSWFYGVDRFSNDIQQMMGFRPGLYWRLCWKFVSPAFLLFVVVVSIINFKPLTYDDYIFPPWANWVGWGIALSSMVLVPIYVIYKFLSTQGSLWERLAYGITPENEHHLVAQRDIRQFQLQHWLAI
T19 sequence (P49841 whole entry): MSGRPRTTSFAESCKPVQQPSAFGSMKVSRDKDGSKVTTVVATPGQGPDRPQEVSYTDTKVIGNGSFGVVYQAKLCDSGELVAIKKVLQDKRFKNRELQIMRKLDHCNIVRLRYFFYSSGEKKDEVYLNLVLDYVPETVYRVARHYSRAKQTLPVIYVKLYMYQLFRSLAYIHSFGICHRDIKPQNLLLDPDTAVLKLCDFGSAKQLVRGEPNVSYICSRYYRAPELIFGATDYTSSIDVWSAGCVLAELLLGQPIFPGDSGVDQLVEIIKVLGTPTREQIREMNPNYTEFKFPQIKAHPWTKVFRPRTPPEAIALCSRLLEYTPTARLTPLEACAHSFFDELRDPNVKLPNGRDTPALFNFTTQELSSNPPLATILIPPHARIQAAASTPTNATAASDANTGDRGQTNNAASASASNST
T12 sequence (O14965 whole entry): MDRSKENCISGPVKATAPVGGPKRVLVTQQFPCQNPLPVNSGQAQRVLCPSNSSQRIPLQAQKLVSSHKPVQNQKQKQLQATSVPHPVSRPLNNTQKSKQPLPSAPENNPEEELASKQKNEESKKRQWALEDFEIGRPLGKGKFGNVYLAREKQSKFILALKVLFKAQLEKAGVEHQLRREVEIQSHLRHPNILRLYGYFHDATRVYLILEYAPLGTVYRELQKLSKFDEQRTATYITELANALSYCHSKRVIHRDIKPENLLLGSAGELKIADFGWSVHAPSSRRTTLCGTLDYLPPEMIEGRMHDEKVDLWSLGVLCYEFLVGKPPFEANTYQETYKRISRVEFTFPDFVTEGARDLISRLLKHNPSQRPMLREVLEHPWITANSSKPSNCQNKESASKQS
T16 sequence (Q9P1W9 whole entry): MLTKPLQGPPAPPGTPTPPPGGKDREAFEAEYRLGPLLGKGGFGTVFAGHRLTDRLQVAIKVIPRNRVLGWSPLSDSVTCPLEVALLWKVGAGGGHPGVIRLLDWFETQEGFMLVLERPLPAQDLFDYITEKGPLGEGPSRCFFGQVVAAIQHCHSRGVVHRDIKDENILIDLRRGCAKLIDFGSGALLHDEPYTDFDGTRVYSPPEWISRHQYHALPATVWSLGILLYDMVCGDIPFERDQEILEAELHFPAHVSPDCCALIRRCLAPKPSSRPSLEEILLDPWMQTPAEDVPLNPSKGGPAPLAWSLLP
Lck(h), sequence (P06239 whole entry): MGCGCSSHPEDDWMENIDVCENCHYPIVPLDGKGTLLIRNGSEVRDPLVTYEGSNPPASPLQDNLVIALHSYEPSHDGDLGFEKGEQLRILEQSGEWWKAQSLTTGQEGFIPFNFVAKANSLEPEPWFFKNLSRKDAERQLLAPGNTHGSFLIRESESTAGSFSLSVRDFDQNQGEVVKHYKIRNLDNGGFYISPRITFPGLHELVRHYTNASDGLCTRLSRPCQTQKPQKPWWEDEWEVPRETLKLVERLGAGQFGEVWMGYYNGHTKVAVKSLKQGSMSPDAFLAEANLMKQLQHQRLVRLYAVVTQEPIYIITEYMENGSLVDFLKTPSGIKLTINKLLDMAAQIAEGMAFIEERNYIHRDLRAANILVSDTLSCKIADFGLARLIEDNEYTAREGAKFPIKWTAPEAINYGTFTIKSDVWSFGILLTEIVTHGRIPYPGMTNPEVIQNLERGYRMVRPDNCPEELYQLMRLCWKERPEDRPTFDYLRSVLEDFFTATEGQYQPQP
T6 sequence (P08912 whole entry): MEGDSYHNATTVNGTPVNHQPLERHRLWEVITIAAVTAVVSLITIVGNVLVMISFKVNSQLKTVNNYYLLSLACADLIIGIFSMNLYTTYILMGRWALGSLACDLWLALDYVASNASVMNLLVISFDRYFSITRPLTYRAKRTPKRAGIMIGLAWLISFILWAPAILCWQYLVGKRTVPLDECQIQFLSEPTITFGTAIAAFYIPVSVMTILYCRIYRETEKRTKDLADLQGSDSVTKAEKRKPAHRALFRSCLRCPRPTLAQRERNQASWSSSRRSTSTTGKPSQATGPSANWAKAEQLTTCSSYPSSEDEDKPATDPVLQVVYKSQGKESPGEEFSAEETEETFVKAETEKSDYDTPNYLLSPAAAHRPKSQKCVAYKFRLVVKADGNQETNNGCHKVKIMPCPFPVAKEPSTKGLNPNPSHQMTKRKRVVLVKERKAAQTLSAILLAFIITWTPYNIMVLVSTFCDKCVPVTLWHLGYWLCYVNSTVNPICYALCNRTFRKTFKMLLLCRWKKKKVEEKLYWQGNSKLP
T2 sequence (P21917 whole entry): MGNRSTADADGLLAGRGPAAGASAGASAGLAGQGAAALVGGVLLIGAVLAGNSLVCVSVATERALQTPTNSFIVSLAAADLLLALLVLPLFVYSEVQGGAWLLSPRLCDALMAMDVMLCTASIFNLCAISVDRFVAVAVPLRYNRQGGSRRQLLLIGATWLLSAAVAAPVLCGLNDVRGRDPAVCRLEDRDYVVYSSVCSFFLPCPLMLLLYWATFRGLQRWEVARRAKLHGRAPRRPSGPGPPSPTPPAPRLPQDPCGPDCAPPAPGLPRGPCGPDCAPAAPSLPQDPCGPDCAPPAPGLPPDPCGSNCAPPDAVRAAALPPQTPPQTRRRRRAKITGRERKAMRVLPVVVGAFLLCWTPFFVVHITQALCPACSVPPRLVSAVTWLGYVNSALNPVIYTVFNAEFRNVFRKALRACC

**Q.** With `Cc1ncsc1-c1ccc([C@H](C)NC(=O)[C@@H]2C[C@@H](O)CN2C(=O)[C@@H](NC(=O)CNC(=O)c2ccc(F)c(-c3ccc(N4C[C@@H](C)N(C)[C@@H](C)C4)c(NC(=O)c4c[nH]c(=O)cc4C(F)(F)F)c3)c2)C(C)(C)C)cc1` [MS67] as the compound, how does the inhibition at 1 µM (5-HT2B) read?
**A.** The inhibition at 1 µM was < 10%.

**Q.** And the inhibition at 1 µM (D4)?
**A.** The inhibition at 1 µM was < 10%.

**Q.** And the inhibition at 1 µM (5-HT1B)?
**A.** The inhibition at 1 µM was < 10%.

**Q.** And the inhibition at 1 µM (NET)?
**A.** Its inhibition at 1 µM is < 10%.

**Q.** And the inhibition at 1 µM (5-HT1E)?
**A.** Its inhibition at 1 µM is < 10%.

**Q.** What about the inhibition at 1 µM (M5) of the same compound?
**A.** The inhibition at 1 µM was < 10%.

**Q.** What about the inhibition at 1 µM (5-HT2C) of the same compound?
**A.** The inhibition at 1 µM was < 10%.

**Q.** What about the inhibition at 1 µM (Beta2) of the same compound?
**A.** Its inhibition at 1 µM is < 10%.

**Q.** What about the inhibition at 1 µM (Alpha2C) of the same compound?
**A.** The inhibition at 1 µM was < 10%.

**Q.** And the inhibition at 1 µM (SERT)?
**A.** Its inhibition at 1 µM is < 10%.

**Q.** What about the remaining activity at 1 µM (Lck(h)) of the same compound?
**A.** Its remaining activity at 1 µM is 97%.

**Q.** What about the remaining activity at 1 µM (Met(h)) of the same compound?
**A.** Its remaining activity at 1 µM is 88%.

**Q.** And the remaining activity at 1 µM (FGFR2(h))?
**A.** Its remaining activity at 1 µM is 84%.

**Q.** And the remaining activity at 1 µM (IR(h))?
**A.** The remaining activity at 1 µM was 87%.

**Q.** What about the remaining activity at 1 µM (JAK3(h)) of the same compound?
**A.** Its remaining activity at 1 µM is 100%.

**Q.** What about the remaining activity at 1 µM (Aurora-A(h)) of the same compound?
**A.** The remaining activity at 1 µM was 108%.

**Q.** And the remaining activity at 1 µM (CHK2(h))?
**A.** The remaining activity at 1 µM was 97%.

**Q.** And the remaining activity at 1 µM (FGFR3(h))?
**A.** The remaining activity at 1 µM was 104%.

**Q.** What about the remaining activity at 1 µM (JNK1α1(h)) of the same compound?
**A.** The remaining activity at 1 µM was 104%.

**Q.** What about the remaining activity at 1 µM (EphA3(h)) of the same compound?
**A.** The remaining activity at 1 µM was 125%.

**Q.** What about the remaining activity at 1 µM (PKA(h)) of the same compound?
**A.** Its remaining activity at 1 µM is 107%.

**Q.** What about the remaining activity at 1 µM (Pim-2(h)) of the same compound?
**A.** Its remaining activity at 1 µM is 99%.

**Q.** What about the remaining activity at 1 µM (IKKα(h)) of the same compound?
**A.** Its remaining activity at 1 µM is 96%.

**Q.** And the remaining activity at 1 µM (MAPKAP-K2(h))?
**A.** Its remaining activity at 1 µM is 104%.

**Q.** What about the remaining activity at 1 µM (GSK3β(h)) of the same compound?
**A.** The remaining activity at 1 µM was 110%.
